{"source": "ChEMBL document CHEMBL5465560", "about": "“Selectivity Literature for EUbOPEN Chemogenomic Library” (2024)", "key": {"[1]": {"biological_target": "RAC-gamma serine/threonine-protein kinase (Homo sapiens, UniProt Q9Y243)", "sequence (Q9Y243 whole entry)": "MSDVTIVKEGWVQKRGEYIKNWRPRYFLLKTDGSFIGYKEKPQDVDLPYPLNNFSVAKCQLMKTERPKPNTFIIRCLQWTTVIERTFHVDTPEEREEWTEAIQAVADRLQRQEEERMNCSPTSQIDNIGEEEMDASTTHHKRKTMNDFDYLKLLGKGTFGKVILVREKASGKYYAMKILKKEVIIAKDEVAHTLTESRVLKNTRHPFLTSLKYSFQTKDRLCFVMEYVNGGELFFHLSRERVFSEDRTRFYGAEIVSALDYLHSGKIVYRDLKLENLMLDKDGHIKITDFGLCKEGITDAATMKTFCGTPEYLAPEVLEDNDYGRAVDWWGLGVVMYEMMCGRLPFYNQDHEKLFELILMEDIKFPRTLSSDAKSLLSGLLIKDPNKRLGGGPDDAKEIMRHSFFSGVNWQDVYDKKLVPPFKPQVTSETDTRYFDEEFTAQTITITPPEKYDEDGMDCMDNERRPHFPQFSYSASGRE", "experiment": "Selectivity interaction (KinomeScan (DiscoverX)) EUB0000618a AKT3", "conditions": "at 10 µM"}, "[2]": {"biological_target": "Atypical kinase COQ8A, mitochondrial (Homo sapiens, UniProt Q8NI60)", "experiment": "Selectivity interaction (KinomeScan (DiscoverX)) EUB0000618a ADCK3", "conditions": "at 10 µM"}, "[3]": {"biological_target": "Macrophage colony-stimulating factor 1 receptor (Homo sapiens) (UniProt P07333)", "sequence (P07333 whole entry)": "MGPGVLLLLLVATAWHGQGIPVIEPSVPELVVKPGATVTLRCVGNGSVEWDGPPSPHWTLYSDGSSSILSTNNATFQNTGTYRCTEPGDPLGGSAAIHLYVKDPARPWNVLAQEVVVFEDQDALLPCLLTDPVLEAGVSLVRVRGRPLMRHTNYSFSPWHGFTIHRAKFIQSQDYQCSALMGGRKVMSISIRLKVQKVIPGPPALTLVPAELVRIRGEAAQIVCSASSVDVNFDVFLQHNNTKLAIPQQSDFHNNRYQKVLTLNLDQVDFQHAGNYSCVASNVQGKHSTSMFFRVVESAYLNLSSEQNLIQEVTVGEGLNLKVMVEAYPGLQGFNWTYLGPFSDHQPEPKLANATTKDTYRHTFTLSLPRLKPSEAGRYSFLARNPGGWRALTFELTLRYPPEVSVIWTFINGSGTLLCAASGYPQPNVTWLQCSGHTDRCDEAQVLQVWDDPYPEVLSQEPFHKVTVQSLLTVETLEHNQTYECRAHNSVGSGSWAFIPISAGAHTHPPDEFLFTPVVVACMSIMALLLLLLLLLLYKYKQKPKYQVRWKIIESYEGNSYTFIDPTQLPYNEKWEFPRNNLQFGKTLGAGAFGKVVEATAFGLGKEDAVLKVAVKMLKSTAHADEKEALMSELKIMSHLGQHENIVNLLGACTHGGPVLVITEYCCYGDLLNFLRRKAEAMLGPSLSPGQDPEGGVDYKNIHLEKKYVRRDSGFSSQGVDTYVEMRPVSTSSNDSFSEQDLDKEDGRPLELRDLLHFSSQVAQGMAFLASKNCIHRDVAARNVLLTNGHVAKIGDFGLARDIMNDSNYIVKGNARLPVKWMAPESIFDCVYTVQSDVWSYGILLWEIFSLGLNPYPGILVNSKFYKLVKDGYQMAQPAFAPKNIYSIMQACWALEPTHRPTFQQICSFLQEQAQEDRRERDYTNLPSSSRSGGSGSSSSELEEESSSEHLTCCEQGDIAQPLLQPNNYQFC", "experiment": "Selectivity interaction (KinomeScan (DiscoverX)) EUB0000607a CSF1R", "conditions": "at 10 µM"}, "[4]": {"biological_target": "Tyrosine-protein kinase Yes (Homo sapiens) (UniProt P07947)", "experiment": "Selectivity interaction (KinomeScan (DiscoverX)) EUB0001619a YES1", "conditions": "at 1 µM"}, "[5]": {"tested_on": "Epidermal growth factor receptor (Homo sapiens), P00533 [UNDEFINED MUTATION]", "sequence (P00533 whole entry, looked up, change not shown)": "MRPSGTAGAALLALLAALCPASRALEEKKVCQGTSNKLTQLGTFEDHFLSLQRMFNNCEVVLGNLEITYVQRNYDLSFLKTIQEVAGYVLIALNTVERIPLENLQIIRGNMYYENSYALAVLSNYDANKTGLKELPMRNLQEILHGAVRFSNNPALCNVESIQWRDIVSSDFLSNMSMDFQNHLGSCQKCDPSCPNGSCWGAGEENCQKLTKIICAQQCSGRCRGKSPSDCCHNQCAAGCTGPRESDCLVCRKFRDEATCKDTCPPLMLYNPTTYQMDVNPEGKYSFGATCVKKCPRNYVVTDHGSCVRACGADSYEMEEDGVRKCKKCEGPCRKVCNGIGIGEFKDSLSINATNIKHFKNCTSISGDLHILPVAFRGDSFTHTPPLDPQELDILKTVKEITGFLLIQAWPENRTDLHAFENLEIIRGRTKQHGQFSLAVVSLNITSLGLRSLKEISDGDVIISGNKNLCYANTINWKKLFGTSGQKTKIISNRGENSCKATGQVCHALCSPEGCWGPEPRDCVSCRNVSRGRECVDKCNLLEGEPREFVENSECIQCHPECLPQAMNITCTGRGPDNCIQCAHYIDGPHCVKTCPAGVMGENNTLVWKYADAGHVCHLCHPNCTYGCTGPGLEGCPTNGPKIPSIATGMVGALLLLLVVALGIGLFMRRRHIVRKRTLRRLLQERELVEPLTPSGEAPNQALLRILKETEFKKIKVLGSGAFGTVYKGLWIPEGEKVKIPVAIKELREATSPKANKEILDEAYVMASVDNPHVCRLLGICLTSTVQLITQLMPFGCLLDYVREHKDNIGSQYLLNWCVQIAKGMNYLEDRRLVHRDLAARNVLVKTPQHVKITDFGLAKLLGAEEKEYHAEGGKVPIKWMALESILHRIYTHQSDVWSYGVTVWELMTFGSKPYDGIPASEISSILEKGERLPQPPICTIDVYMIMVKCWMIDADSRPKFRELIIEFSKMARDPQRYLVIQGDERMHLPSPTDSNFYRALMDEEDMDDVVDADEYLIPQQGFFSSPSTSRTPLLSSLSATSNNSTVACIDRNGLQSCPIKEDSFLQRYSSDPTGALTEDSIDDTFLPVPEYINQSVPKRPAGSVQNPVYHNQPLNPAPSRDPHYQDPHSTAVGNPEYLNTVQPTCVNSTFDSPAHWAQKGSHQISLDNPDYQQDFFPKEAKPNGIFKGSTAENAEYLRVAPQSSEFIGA", "experiment": "Selectivity interaction (KinomeScan (DiscoverX)) EUB0000045b EGFR", "conditions": "at 1 µM"}, "[6]": {"biological_target": "T1, Mitogen-activated protein kinase kinase kinase 7 (Homo sapiens) (UniProt O43318)", "T1 sequence (whole entry)": "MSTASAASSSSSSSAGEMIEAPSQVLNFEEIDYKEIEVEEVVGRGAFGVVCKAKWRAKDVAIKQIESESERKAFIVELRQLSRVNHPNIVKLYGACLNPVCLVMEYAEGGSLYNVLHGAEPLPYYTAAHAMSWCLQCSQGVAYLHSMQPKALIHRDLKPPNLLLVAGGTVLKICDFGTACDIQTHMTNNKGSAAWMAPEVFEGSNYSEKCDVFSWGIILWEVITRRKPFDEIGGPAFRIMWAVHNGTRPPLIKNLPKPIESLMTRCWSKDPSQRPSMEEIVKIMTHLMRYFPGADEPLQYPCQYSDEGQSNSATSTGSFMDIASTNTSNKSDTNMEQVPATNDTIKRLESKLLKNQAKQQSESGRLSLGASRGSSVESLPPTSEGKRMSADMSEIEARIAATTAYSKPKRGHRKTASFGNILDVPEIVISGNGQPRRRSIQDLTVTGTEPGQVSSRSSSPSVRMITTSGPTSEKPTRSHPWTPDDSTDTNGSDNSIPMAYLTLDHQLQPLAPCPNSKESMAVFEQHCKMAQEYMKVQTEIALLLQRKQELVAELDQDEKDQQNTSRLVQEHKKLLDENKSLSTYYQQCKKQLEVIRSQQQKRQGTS", "experiment": "Selectivity interaction (KinomeScan (DiscoverX)) EUB0000045b MAP3K7"}, "[7]": {"biological_target": "Ephrin type-A receptor 7 (Homo sapiens) (UniProt Q15375)", "sequence (Q15375 28-998 limits assumed)": "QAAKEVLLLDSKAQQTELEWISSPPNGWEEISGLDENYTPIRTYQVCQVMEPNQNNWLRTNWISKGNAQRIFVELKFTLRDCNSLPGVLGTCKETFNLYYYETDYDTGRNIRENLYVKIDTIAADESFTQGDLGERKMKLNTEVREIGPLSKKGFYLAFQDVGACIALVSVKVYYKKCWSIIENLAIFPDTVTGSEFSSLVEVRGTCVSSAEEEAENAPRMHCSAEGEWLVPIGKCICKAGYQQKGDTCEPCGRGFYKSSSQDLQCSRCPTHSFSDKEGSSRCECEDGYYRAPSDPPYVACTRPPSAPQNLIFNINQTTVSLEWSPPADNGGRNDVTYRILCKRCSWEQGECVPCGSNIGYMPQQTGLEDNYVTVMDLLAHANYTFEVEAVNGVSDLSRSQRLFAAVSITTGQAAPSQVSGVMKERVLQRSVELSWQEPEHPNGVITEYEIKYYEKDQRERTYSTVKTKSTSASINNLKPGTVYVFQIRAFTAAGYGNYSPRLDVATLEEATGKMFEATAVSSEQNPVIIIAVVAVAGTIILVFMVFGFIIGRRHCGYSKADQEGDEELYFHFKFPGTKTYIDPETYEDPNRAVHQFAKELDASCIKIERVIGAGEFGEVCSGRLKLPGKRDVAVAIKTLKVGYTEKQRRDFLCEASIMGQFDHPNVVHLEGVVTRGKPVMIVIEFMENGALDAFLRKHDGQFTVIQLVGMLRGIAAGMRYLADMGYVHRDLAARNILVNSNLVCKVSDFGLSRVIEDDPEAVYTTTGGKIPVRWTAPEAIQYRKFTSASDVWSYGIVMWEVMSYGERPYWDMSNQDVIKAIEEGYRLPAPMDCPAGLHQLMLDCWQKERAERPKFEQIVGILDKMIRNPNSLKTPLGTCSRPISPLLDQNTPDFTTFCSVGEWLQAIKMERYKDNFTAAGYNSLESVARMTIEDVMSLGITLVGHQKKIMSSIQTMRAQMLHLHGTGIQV", "experiment": "Selectivity interaction (KinomeScan (DiscoverX)) EUB0000595a EPHA7", "conditions": "at 10 µM"}, "[8]": {"biological_target": "T2, Atypical kinase COQ8B, mitochondrial (Homo sapiens) (UniProt Q96D53)", "T2 sequence (whole entry)": "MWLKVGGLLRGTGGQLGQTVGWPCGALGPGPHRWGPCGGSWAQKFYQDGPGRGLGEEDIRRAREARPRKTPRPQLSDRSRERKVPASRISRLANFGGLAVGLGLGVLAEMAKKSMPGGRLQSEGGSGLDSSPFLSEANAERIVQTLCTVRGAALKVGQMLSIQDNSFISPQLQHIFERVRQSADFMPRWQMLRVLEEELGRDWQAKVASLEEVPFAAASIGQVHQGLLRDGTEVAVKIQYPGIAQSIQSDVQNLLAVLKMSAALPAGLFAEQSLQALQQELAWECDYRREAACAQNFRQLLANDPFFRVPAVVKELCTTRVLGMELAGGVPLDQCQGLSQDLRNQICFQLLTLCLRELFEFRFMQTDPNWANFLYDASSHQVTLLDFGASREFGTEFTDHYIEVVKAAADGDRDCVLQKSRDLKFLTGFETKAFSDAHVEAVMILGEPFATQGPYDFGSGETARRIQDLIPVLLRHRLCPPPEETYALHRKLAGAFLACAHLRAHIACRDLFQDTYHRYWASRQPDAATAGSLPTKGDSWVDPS", "experiment": "Selectivity interaction (KinomeScan (DiscoverX)) EUB0000595a ADCK4", "conditions": "at 10 µM"}, "[9]": {"biological_target": "Protein arginine N-methyltransferase 7 (Homo sapiens, UniProt Q9NVM4)", "sequence (Q9NVM4 whole entry)": "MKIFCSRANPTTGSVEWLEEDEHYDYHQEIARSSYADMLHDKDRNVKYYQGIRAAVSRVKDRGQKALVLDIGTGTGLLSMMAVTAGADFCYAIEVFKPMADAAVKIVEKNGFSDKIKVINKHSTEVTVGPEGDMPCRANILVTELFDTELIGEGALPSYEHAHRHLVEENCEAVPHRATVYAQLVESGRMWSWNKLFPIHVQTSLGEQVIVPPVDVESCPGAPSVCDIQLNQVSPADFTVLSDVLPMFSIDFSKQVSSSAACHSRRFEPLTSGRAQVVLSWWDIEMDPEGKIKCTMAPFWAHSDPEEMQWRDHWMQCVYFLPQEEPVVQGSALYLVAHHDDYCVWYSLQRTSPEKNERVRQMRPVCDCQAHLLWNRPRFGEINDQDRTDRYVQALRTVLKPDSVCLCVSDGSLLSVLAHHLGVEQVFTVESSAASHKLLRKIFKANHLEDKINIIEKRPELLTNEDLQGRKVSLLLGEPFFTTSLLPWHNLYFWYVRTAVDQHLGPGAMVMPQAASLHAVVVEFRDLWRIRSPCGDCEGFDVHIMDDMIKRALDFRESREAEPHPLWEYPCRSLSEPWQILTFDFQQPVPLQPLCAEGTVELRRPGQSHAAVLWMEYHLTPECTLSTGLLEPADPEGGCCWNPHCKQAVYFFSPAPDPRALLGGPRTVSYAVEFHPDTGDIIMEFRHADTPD", "experiment": "Selectivity interaction (Scintillation proximity assays) EUB0000230b PRMT7"}, "[10]": {"biological_target": "Glycogen synthase kinase-3 beta (Homo sapiens, UniProt P49841)", "experiment": "Selectivity interaction (Kinase panel (KiNativ target engagement assay in Jurkat cells)) EUB0001635a GSK3B", "assay_type": "cell-based", "conditions": "Selectivity number of off-targets 0.0, Selectivity number of targets 233.0, Source Knowledge https://www.sciencedirect.com/science/article/pii/S2451945619300674?via%3Dihub, at 1 µM"}, "[11]": {"biological_target": "Epithelial discoidin domain-containing receptor 1 (Homo sapiens) (UniProt Q08345)", "conditions": "at 10 µM"}, "[12]": {"biological_target": "Dual specificity mitogen-activated protein kinase kinase 1 (Homo sapiens, UniProt Q02750)", "sequence (Q02750 whole entry)": "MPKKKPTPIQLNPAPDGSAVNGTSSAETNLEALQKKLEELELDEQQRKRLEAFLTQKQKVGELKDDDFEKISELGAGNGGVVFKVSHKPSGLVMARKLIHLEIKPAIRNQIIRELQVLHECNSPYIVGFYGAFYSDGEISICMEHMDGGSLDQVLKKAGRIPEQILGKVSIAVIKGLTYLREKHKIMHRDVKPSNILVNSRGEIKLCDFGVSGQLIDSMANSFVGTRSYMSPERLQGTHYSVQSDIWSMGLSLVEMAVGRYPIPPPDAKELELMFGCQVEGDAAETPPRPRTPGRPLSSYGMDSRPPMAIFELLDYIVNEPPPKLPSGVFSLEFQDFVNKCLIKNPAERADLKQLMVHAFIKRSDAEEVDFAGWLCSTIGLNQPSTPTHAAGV", "experiment": "Selectivity interaction (ActivX KiNativ screen (kinase selectivity in THP-1 cell lysates)) EUB0000639a MAP2K1", "assay_type": "subcellular", "conditions": "lysate"}, "[13]": {"biological_target": "Mitogen-activated protein kinase kinase kinase kinase 5 (Homo sapiens) (UniProt Q9Y4K4)", "experiment": "Selectivity interaction (KinomeScan (DiscoverX)) EUB0000092b MAP4K5", "conditions": "at 10 µM"}}, "data": [{"compound": "O[C@H]1CC[C@H](Nc2ncc3nc(Nc4c(F)cc(F)cc4F)n([C@H]4CCOC4)c3n2)CC1", "values": [{"measurement": "% of control", "setting": "[1]", "value": 100, "unit": "%"}, {"measurement": "% of control", "setting": "[2]", "value": 35, "unit": "%"}]}, {"compound": "CNC(=O)Nc1ccc(-c2nc(N3CC4CCC(C3)O4)c3cnn(C4CCC5(CC4)OCCO5)c3n2)cc1", "values": [{"measurement": "% of control", "setting": "[3]", "value": 100, "unit": "%"}]}, {"compound": "N#Cc1cccc(-c2c[nH]c3ncnc(N4CCOCC4)c23)c1", "values": [{"measurement": "% of control", "setting": "[4]", "value": 95, "unit": "%"}]}, {"compound": "C=CC(=O)Nc1cc(-n2c(=O)ccc3cnc4ccc(-c5ccc(NS(C)(=O)=O)cc5)cc4c32)ccc1C", "values": [{"measurement": "% of control", "setting": "[5]", "value": 51, "unit": "%"}, {"measurement": "% of control", "setting": "[6]; at 1 µM", "value": 83, "unit": "%"}, {"measurement": "% of control", "setting": "[6]; at 10 µM", "value": 78, "unit": "%"}]}, {"compound": "COCC(=O)NC/C=C/c1ccc2ncnc(Nc3ccc(Oc4ccc(C)nc4)c(C)c3)c2c1", "note": "[CP-724714]", "values": [{"measurement": "% of control", "setting": "[7]", "value": 100, "unit": "%"}, {"measurement": "% of control", "setting": "[8]", "value": 98, "unit": "%"}]}, {"compound": "CNCCN1CCC(c2cc(CN(C)C(=O)c3cccc(Oc4ccccc4)c3)ccn2)CC1", "values": [{"measurement": "IC50", "setting": "[9]", "value": "> 10", "unit": "µM"}]}, {"compound": "C=CC(=O)Nc1ccc(C(=O)Nc2[nH]nc3c2CN(C(=O)N[C@H](CN(C)C)c2ccccc2)C3(C)C)cc1", "values": [{"measurement": "% of engagement", "setting": "[10]", "value": -4.3, "unit": "%"}]}, {"compound": "Cc1cc([C@@H](C)Nc2ccccc2C(=O)O)c2nc(N3CCOCC3)cc(=O)n2c1", "note": "[AZD-6482]", "values": [{"measurement": "% of control", "setting": "[11]", "value": 100, "unit": "%"}]}, {"compound": "CC[C@@H]1[C@H](F)C(=O)N[C@@H]1COc1nccc2cc(C(N)=O)c(OC)cc12", "note": "[ZIMLOVISERTIB]", "values": [{"measurement": "% of inhibition", "setting": "[12]; at 0.01 µM", "value": -25.6, "unit": "%"}, {"measurement": "% of inhibition", "setting": "[12]; at 0.04 µM", "value": -4.8, "unit": "%"}, {"measurement": "% of inhibition", "setting": "[12]; at 0.2 µM", "value": -3.6, "unit": "%"}, {"measurement": "% of inhibition", "setting": "[12]; at 1 µM", "value": 3.1, "unit": "%"}, {"measurement": "% of inhibition", "setting": "[12]; at 5 µM", "value": 18.5, "unit": "%"}]}, {"compound": "CCC(=O)N1CCN(c2ccc(-n3c(=O)ccc4cnc5ccc(-c6cnc7ccccc7c6)cc5c43)cc2C(F)(F)F)CC1", "values": [{"measurement": "% of control", "setting": "[13]", "value": 8.1, "unit": "%"}]}]}
